USRE39591E1, “6-O-substituted ketolides having antibacterial activity” (Abbott Laboratories, priority 1996, dated 2007)
In brackets after ≈: the same amount, converted by molar mass.

Tested on: up to 32 different microorganisms
Test: in vitro antibacterial activity (MIC), agar dilution on Brain Heart Infusion (BHI) agar with Steers replicator
Type: cell-based
Details: unit assumed
Protocol: Representative compounds of the present invention were assayed in vitro for antibacterial activity as follows: Twelve petri dishes containing successive aqueous dilutions of the test compound mixed with 10 mL of sterilized Brain Heart Infusion (BHI) agar (Difco 0148-01-5) were prepared. Each plate was inoculated with 1:100 (or 1:10 for slow-growing strains, such as Micrococcus and Streptococcus) dilutions of up to 32 different microorganisms, using a Steers replicator block. The inoculated plates were incubated at 35°-37° C. for 20 to 24 hours. In addition, a control plate, using BHI agar containing no test compound, was prepared and incubated at the beginning and end of each test.
An additional plate containing a compound having known susceptibility patterns for the organisms being tested and belonging to the same antibiotic class as the test compound was also prepared and incubated as a further control, as well as to provide test-to-test comparability. Erythromycin A was used for this purpose.
After incubation, each plate was visually inspected. The minimum inhibitory concentration (MIC) was defined as the lowest concentration of drug yielding no growth, a slight haze, or sparsely isolated colonies on the inoculum spot as compared to the growth control.

[1] = Candida albicans CCH 442 (code TT)
[2] = Enterococcus faecism ATCC 8043 (code II)
[3] = Escherichia coli DC-2 (code SS)
[4] = Escherichia coli JUHL (code QQ)
[5] = Micrococcus luteus ATCC 4698 (code PP)
[6] = Micrococcus luteus ATCC 9341 (code OO)
[7] = Mycobacterium smegmatis ATCC 114 (code UU)
[8] = Nocardia Asteroides ATCC9970 (code VV)
[9] = Staphylococcus aureus 1775 (code GG)
[10] = Staphylococcus aureus A-5278 (code CC)
[11] = Staphylococcus aureus ATCC 6538P (code AA)
[12] = Staphylococcus aureus CMX 553 (code FF)
[13] = Staphylococcus aureus CMX 642A (code DD)
[14] = Staphylococcus aureus NCTC10649M (code EE)
[15] = Staphylococcus epidermidis 3519 (code HH)
[16] = Streptococcus agalactiae CMX 508 (code KK)
[17] = Streptococcus bovis A-5169 (code JJ)
[18] = Streptococcus pyogenes 930 (code MM)
[19] = Streptococcus pyogenes EES61 (code LL)
[20] = Streptococcus pyogenes PIU 2548 (code NN)

In the case of `CCC1OC(=O)C(C)C(=O)C(C)C(OC2OC(C)CC(N(C)C)C2O)C(C)(OCC=Cc2cnc3ccc([N+](=O)[O-])cc3c2)CC(C)C(=O)C(C)C2NC(=O)OC12C` (centres unmarked) [Example 195, R is —CH2CH═CH-(6-nitroquinolyl)], the MIC [1] is reported as over 100 µg/mL, the MIC [2] is reported as 0.05 µg/mL (≈ 0.0617 µM) and the MIC [3] is reported as 50 µg/mL (≈ 61.7 µM). For the same molecule, the MIC [4] was 50 µg/mL (≈ 61.7 µM), the MIC (Escherichia coli SS (code RR)) was 0.2 µg/mL (≈ 0.247 µM) and the MIC [5] was 0.1 µg/mL (≈ 0.123 µM). For the same molecule, the MIC [6] was 0.01 µg/mL (≈ 0.0123 µM), the MIC [7] was 0.39 µg/mL (≈ 0.481 µM) and the MIC [8] was 0.05 µg/mL (≈ 0.0617 µM). It also gave an MIC [9] of over 100 µg/mL, an MIC [10] of over 100 µg/mL and an MIC [11] of 0.05 µg/mL (≈ 0.0617 µM). It also gave an MIC [12] of 0.05 µg/mL (≈ 0.0617 µM), an MIC [13] of 0.05 µg/mL (≈ 0.0617 µM) and an MIC [14] of 0.05 µg/mL (≈ 0.0617 µM). It also gave an MIC [15] of 0.05 µg/mL (≈ 0.0617 µM), an MIC [16] of 0.05 µg/mL (≈ 0.0617 µM) and an MIC [17] of 0.01 µg/mL (≈ 0.0123 µM). It also gave an MIC [18] of 1.56 µg/mL (≈ 1.92 µM), an MIC [19] of 0.02 µg/mL (≈ 0.0247 µM) and an MIC [20] of 0.1 µg/mL (≈ 0.123 µM).

`CCC1OC(=O)C(C)C(=O)C(C)C(OC2OC(C)CC(N(C)C)C2O)C(C)(OCC=Cc2cnc3ccc(C#N)cc3c2)CC(C)C(=O)C(C)C2NC(=O)OC12C` (centres unmarked) [Example 218, R is —CH2CH═CH-(6-cyano-3-quinolyl)] was tested, and the MIC (organism code AA) was 0.1 µg/mL (≈ 0.126 µM), the MIC (organism code BB) was 0.1 µg/mL (≈ 0.126 µM) and the MIC (organism code CC) was over 100 µg/mL. For the same molecule, the MIC (organism code DD) was 0.1 µg/mL (≈ 0.126 µM), the MIC (organism code EE) was 0.1 µg/mL (≈ 0.126 µM) and the MIC (organism code FF) was 0.1 µg/mL (≈ 0.126 µM). It also gave an MIC (organism code GG) of over 100 µg/mL, an MIC (organism code HH) of 0.01 µg/mL (≈ 0.0126 µM) and an MIC (organism code II) of 0.05 µg/mL (≈ 0.0632 µM). For the same molecule, the MIC (organism code JJ) was 0.01 µg/mL (≈ 0.0126 µM), the MIC (organism code KK) was 0.01 µg/mL (≈ 0.0126 µM) and the MIC (organism code LL) was 0.01 µg/mL (≈ 0.0126 µM). It also gave an MIC (organism code MM) of 6.2 µg/mL (≈ 7.84 µM), an MIC (organism code NN) of 0.2 µg/mL (≈ 0.253 µM) and an MIC (organism code OO) of 0.05 µg/mL (≈ 0.0632 µM). For the same molecule, the MIC (organism code PP) was 0.05 µg/mL (≈ 0.0632 µM), the MIC (organism code QQ) was 50 µg/mL (≈ 63.2 µM) and the MIC (organism code RR) was 0.39 µg/mL (≈ 0.493 µM). The MIC (organism code SS) was over 100 µg/mL, the MIC (organism code TT) was over 100 µg/mL and the MIC (organism code UU) was 0.78 µg/mL (≈ 0.986 µM). It also gave an MIC (organism code VV) of 0.05 µg/mL (≈ 0.0632 µM), an MIC (organism code XX) of 0.015 µg/mL (≈ 0.019 µM) and an MIC (organism code YY) of 0.015 µg/mL (≈ 0.019 µM). It also gave an MIC (organism code ZZ) of 4 µg/mL (≈ 5.06 µM) and an MIC (organism code ZZA) of 0.25 µg/mL (≈ 0.316 µM).

`CC[C@H]1OC(=O)[C@H](C)C(=O)[C@H](C)[C@@H](O[C@@H]2O[C@H](C)C[C@H](N(C)C)[C@H]2O)[C@@](C)(OCC=NOc2ccccc2)C[C@@H](C)C(=O)[C@H](C)[C@H]2NC(=O)O[C@@]21C` [Example 228, Compound of Formula (IX): L is CO, T is NH, R is —CH2CH═NO(phenyl)] showed an MIC (organism code AA) of 0.39 µg/mL, an MIC (organism code BB) of 0.78 µg/mL and an MIC (organism code CC) of over 100 µg/mL. For the same molecule, the MIC (organism code DD) was 0.78 µg/mL, the MIC (organism code EE) was 0.78 µg/mL and the MIC (organism code FF) was 0.78 µg/mL. The MIC (organism code GG) was over 100 µg/mL, the MIC (organism code HH) was 0.78 µg/mL and the MIC (organism code II) was 0.1 µg/mL. For the same molecule, the MIC (organism code JJ) was 0.02 µg/mL, the MIC (organism code KK) was at most 0.005 µg/mL and the MIC (organism code LL) was 0.01 µg/mL. For the same molecule, the MIC (organism code MM) was 25 µg/mL, the MIC (organism code NN) was 0.78 µg/mL and the MIC (organism code OO) was 0.2 µg/mL. The MIC (organism code PP) was 0.39 µg/mL, the MIC (organism code QQ) was over 100 µg/mL and the MIC (organism code RR) was 0.78 µg/mL. The MIC (organism code SS) was over 100 µg/mL, the MIC (organism code TT) was over 100 µg/mL and the MIC (organism code UU) was 3.1 µg/mL. It also gave an MIC (organism code VV) of 0.78 µg/mL, an MIC (organism code WW) of 8 µg/mL and an MIC (organism code XX) of 0.125 µg/mL. For the same molecule, the MIC (organism code YY) was 0.125 µg/mL, the MIC (organism code ZZ) was over 128 µg/mL and the MIC (organism code ZZA) was 1 µg/mL.

`CCC1OC(=O)C(C)C(=O)C(C)C(OC2OC(C)CC(N(C)C)C2O)C(C)(OCC=Cc2cnc3ccccc3c2)CC(C)C(=O)C(C)C2N(CC=Cc3cnc4ccccc4c3)C(=O)OC12C` (centres unmarked) [Example 184, Compound of Formula (IX): L is CO, T is T is N (CH2CH═CH-(3-quinolyl)), R is —CH2CH═CH-(3-quinolyl)] was tested, and the MIC [1] was over 100 µg/mL, the MIC [2] was 0.2 µg/mL and the MIC [3] was over 100 µg/mL. It also gave an MIC [4] of over 100 µg/mL, an MIC (Escherichia coli SS (code RR)) of 12.5 µg/mL and an MIC (Haemophilis influenzae DILL AMP R (code WW)) of over 128 µg/mL. For the same molecule, the MIC [5] was 0.78 µg/mL, the MIC [6] was 0.39 µg/mL and the MIC [7] was 6.2 µg/mL. For the same molecule, the MIC [8] was 3.1 µg/mL, the MIC [9] was over 100 µg/mL and the MIC (Staphylococcus aureus A5177 (code BB)) was 1.56 µg/mL. It also gave an MIC [10] of over 100 µg/mL, an MIC [11] of 3.1 µg/mL and an MIC [12] of 1.56 µg/mL. For the same molecule, the MIC [13] was 3.1 µg/mL, the MIC [14] was 3.1 µg/mL and the MIC [15] was 3.1 µg/mL. For the same molecule, the MIC (Streptococcus Pneumonia 5649 (code ZZA)) was 2 µg/mL, the MIC (Streptococcus Pneumonia 5979 (code ZZ)) was 32 µg/mL and the MIC (Streptococcus Pneumonia ATCC6303 (code XX)) was 1 µg/mL. For the same molecule, the MIC (Streptococcus Pneumonia GYR 1171 (code YY)) was 0.5 µg/mL, the MIC [16] was 0.1 µg/mL and the MIC [17] was 0.1 µg/mL. It also gave an MIC [18] of 25 µg/mL, an MIC [19] of 0.1 µg/mL and an MIC [20] of 1.56 µg/mL.
